Assay results taken from patent US20240010981A1, “COMPOSITIONS AND METHODS FOR INCREASING STEM CELL FUNCTION” (SOCIETE DES PRODUITS NESTLE S.A., priority 2020, published 2024).
Entries after “also recorded” stand apart in the source; their conditions may differ.

How the values were obtained:
[1] = tested on: murine HSCs (LKS CD150+CD48−); assay: Mitochondrial membrane potential (TMRM staining, flow cytometry) of cultured murine HSCs; format: cell-based, mouse; details: compared to the Basal condition; day 3 of culture; NR 500 uM, Vit B12 (MC) 100 uM
Description: Flow cytometry analysis was performed on freshly isolated bone marrow (BM) from C57BI6 mice. BM was extracted from crushed femora and tibia. Cell suspension was filtered through a 70 μm cell strainer and erythroid cells were eliminated by incubation with red blood cell lysis buffer (eBioscences). Isolation and stains were performed in ice-cold PBS 1 mM EDTA. Lineage positive cells were then removed with a magnetic lineage depletion kit (BD biosciences). Cell suspensions were then stained with specific antibodies for the stem cell compartment and sorted by FACS (BD FACS Aria III) into 1.5 ml Eppendorf tubes.
The following antibodies were used in this study: rat mAbs against cKit (2B8), Sca1 (D7), CD150 (TC-15-12F12.2), CD48 (HM48-1). The antibodies were purchased from Biolegend, eBiosciences and BD. A mixture of biotinylated mAbs against CD3, CD11b, CD45R/B220, Ly-6G, Ly-6C and TER-119 was used as lineage marker (“lineage cocktail”) and was purchased from BD. DAPI or propidium iodine (PI) staining was used for live/dead cell discrimination.
Murine HSCs were sorted into 1.5 ml Eppendorf tubes and were cultured in Stemline II (SIGMA) supplemented with 100 ng/ml SCF (R&D) and 2 ng/ml Flt3 (R&D). This was defined as the basal condition. Different concentrations as indicated of UroA, NR and Vit B12 (MC) were added in specific wells. NR was supplemented every 24 hours.
Mouse HSCs already in culture were incubated at 37° C. for 1 hour with 200 nM tetramethylrhodamine methyl ester (TMRM; Invitrogen) and 100 nM Mitotracker green. Cells were then washed with FACS buffer and analysed by flow cytometry on a BD LSR II.
Freshly FACS sorted mHSCs (LKS CD150+CD48−) were cultured in basal media (Stemline+SCF+FLT3L) supplemented with UroA, NR and MC in specific wells (as indicated). Cells were harvested at day 3 and stained with tetramethylrhodamine methyl ester (TMRM; to measure mitochondria membrane potential) and Mitotracker (to measure mitochondrial mass) and analysed by flow cytometry.

human HSCs = details: culture media supplemented with nicotinamide riboside, primary and secondary recipient humanised mice; cited from earlier work

NC(=O)c1ccc[n+]([C@@H]2O[C@H](CO)[C@@H](O)[C@H]2O)c1 [NR, Nicotinamide riboside]
MFI TMRM (Mean Fluorescence Intensity) [1]: significantly decreased; also recorded: decreases | proportion of cells in the TMRM low gate [1]: significantly increased; also recorded: increases | levels of engraftment (human HSCs): significantly higher

C/C1=C2/[N-][C@H]([C@H](CC(N)=O)[C@@]2(C)CCC(=O)NC[C@@H](C)OP(=O)([O-])O[C@H]2[C@@H](O)[C@@H](n3cnc4cc(C)c(C)cc43)O[C@@H]2CO)[C@]2(C)N=C(/C(C)=C3N=C(/C=C4N=C1[C@@H](CCC(N)=O)C\4(C)C)[C@@H](CCC(N)=O)[C@]\3(C)CC(N)=O)[C@@H](CCC(N)=O)[C@]2(C)CC(N)=O.[CH3-].[Co] [MC, methylcobalamine]
MFI TMRM (Mean Fluorescence Intensity) [1]: significantly decreased; also recorded: decreases | proportion of cells in the TMRM low gate [1]: significantly increased; also recorded: increases
